Results published in patent publication US5399568A, “Methanoanthrancenyl piperidyl antipsychotics” (Imperial Chemical Industries plc, priority 1991, dated 1995).

Key:
[1] = biological target: T1, dopamine (DA) D-2 receptor (Rattus norvegicus, UniProt P61169); test: Test A: antagonism of [^3 H]-spiperone binding (D-2 receptor binding assay, rat striatal membranes); settings: 0.5 nM [^3 H] spiperone, 40 nM ketanserin, pH 7.7, 37° C., 15 min, typical values, read-out: IC50 (drug concentration which produced a 50% displacement of [^3 H] spiperone)
T1 construct: rat striatal membranes were used; from tissue; host or cells: rat striatum (membranes)
T1 sequence (P61169 whole entry): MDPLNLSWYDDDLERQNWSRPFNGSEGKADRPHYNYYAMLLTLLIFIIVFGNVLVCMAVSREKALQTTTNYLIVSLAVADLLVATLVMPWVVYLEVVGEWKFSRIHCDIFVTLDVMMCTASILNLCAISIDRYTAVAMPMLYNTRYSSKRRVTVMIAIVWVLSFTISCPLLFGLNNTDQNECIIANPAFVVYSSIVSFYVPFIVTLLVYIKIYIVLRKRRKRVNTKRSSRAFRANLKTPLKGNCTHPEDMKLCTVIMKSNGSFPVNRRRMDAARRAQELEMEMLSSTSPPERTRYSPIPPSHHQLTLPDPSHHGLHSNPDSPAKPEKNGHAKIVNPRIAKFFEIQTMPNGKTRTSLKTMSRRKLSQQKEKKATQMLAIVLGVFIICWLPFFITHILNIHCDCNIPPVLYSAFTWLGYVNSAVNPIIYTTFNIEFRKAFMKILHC
From the text: (§1) The compounds of Formula I are antagonists of dopamine D-2 receptors, and as such are predicted to be useful as antipsychotic drugs. D-2 antagonism can be shown by standard tests such as antagonism of [^3 H]-spiperone binding (Test A), and/or antagonism of apomorphine-induced climbing and apomorphine- induced disruption of swimming (Test B).
The receptor binding assay used to measure affinities of various compounds for the dopamine (DA) D-2 receptor subtype was that described by Saller and Salama in J Pharmacol Exp Ther 236, page 714, 1986.
Specifically, rat striatal membranes were used. Tissue membranes were prepared and washed once in 50 volumes of the appropriate Tris HCl buffer. For the D-2 receptor binding assay, striatal membranes were suspended to a final concentration of 8 mg/ml in 50 mM Tris HCl with 40 nM ketanserin, pH 7.7. Nonspecific binding to D-2 receptors was measured in the presence of 1.0 μM (+)-butaclamol. IC50 s (drug concentration which produced a 50% displacement) for the displacement of 0.5 nM [^3 H] spiperone were determined using at least five concentrations of each drug in triplicate. One-half milliliter of membrane suspension was incubated with the compound of interest or vehicle or nonspecific drug, ligand and appropriate Tris HCl buffer. The final reaction volume totaled 1 ml for each tube and was incubated at 37° C. for 15 min to facilitate binding and ensure equilibrium had been met. A Brandel filtering system equipped with GF/B filters was used to separate bound from free drug. The amount of drug bound to the membranes was assessed using liquid scintillation counting techniques. IC50 values were obtained from a least squares regression of a logit-log transformation of the data. Typical values in this test were, for example, 103 nM (nanomolar) for the compound of Example 6, 84 nM for the compound of Example 15, and 15 nM for the compound of Example 21.

[2] = test system: apomorphine-induced climbing and apomorphine-induced disruption of swimming; test: Test B: antagonism of apomorphine-induced climbing and apomorphine-induced disruption of swimming; format: in vivo; settings: Mus musculus; oral, female Swiss-Webster mice, 30 min before apomorphine HCl 1.25 mg/kg sc; typical values; read-out: minimum effective dose (decrease in climbing score accompanied by increase in swimming score)
Method: as §1
Female Swiss-Webster mice weighing approximately 20 g were deprived of food for approximately 24 h and then dosed orally with various doses of either the vehicle or test agent over a range of doses (N=20 mice per treatment group). Thirty minutes later they were dosed with apomorphine HCl at 1.25 mg/kg, sc, and placed into climbing cages. The climbing cages were 9 cm wide, 15 cm deep and 30 cm high. One wall had 27 horizontal rungs spaced 1 cm apart. Thirteen minutes after apomorphine each mouse was observed continuously for 1 min and the highest and lowest rung reached by its front paws was recorded. The mean of these two scores was used as the score for that mouse. (The highest and lowest scores were 27 and 0, respectively.) Immediately after the 1-min climbing observation period each mouse was placed into a circular swimming tank for 2 min and the number of swims was counted. The height of the tank was 15 cm and the diameter was 28 cm. A circular obstacle measuring 10.5 cm in diameter and having a height of 17 cm was placed into the center of the tank, creating a circular swimming channel 8.75 cm wide. The water level was 5.5 cm and the water was kept at room temperature. Marks were placed on the floor and side of the tank 180 degrees apart. A "swim" was scored each time a mouse swam from one mark to the other. The mice were observed through overhead mirrors and the number of 180 degree swims was recorded for each mouse. Activity in this test was indicated by a decrease in the climbing score accompanied by an increase in the swimming score at a given dose of the test compound. Typical values of minimum effective doses in this test were 10 mg/kg for the compound of Example 6 and 20 mg/kg for each of the compounds of Examples 15 and 21.

SMILES | IC50 [1] [nM] | minimal effective dose [2] [mg/kg]
COc1cccc(C(O)C2CCN(CC34CC(c5ccccc53)c3ccc(Cl)cc34)CC2)c1 (racemic) [Example 15, (R,S)-1-[1-((9RS,10RS)-2-Chloro-9,10-dihydro-9,10-methanoanthracen-9-ylmethyl)-4-piperidyl]-1-(3-methoxyphenyl)methanol] | 84 | 20
COc1ccc(C(O)C2CCN(CC34CC(c5ccccc53)c3ccc(Cl)cc34)CC2)cc1 (racemic) [Example 21, (R,S)-1-[1-((9RS, 10RS)-2-Chloro-9,10-dihydro-9,10-methanoanthracen-9-ylmethyl)-4-piperidyl]-1-(4-methoxyphenyl)methanol] | 15 | 20
OC(c1cccnc1)C1CCN(CC23CC(c4ccccc42)c2ccccc23)CC1 (stereo not drawn) [Example 6, 1-[1-(9,10-Dihydro-9,10-methanoanthracen-9-ylmethyl)-4-piperidyl]-1-(3-pyridyl)methanol] | 103 | 10
